We go through three compounds from US20140065649A1, “TEST SYSTEMS AND METHODS FOR IDENTIFYING AND CHARACTERISING LIPID LOWERING DRUGS” (Sanofi, priority 2011, published 2014).

Entries after “also recorded” stand apart in the source; their conditions may differ. Some results are limits rather than exact numbers.

The subject of series [1] is normolipidemic male Syrian hamsters. Briefly: Study 2: serum lipids, atorvastatin twice daily with and without single s.c. 316P in normolipidemic hamsters. Type of series: in vivo, Mesocricetus auratus.
The test system is the same in series [2]. Briefly: Study 2: safety parameters, body weight, liver weight and liver lipids.
Method: (§1) Male Syrian hamsters (strain RjHan: AURA in Study 1 and Bio™ F1B in Study 2), weighing between 90 and 100 g, were purchased from Janvier, Germany, and were allowed to acclimatize for a period of 7 days before entering the study.
(§2) The investigation was divided into 2 studies. […] For each study, body weight and food consumption (weight changes in chow) were measured once a week, starting 1 week before dosing. […] In Study 1, samples were taken on Days −6, 1, 7, 14, 21, and 28; in Study 2, samples were taken on Days −7, 0, 3, and 7. Serum was obtained after centrifugation using Serum-Gel® tubes (Sarstedt, Nümbrecht, Germany).
(§3) At the end of each study, animals were sacrificed in a nonfasted state and liver was immediately weighed and shock frozen on dry ice.
(§4) All data are expressed as means±standard error of the mean (SEM) and were tested for normality and variance homogeneity before analysis. […] In Study 1, the vehicle-treated control versus treatment-naive control group was analyzed separately using 2-way ANOVA followed by the Dunnett test. A P value of ≦0.05 was considered statistically significant. Food consumption and safety parameters (AST, ALT, AP, and CK) were descriptively evaluated.
Series [3] concerns human HepG2 or Huh7 cells. As to conditions: cited from earlier work.
The next series relates to dyslipidemic hamsters. As to conditions: cited from earlier work.
The subject of series [4] is normolipidemic male Syrian hamsters. Briefly: Study 1: serum lipids after single s.c. injection in normolipidemic hamsters. Type of series: in vivo, Mesocricetus auratus. As to conditions: for decrease in TC: Day 7.
Series [5] in a line: Study 1: serum 316P levels by sandwich ELISA. As to conditions: Study 1, 24-hour time point, 1, 3, and 10 mg/kg. Type of series: in vivo, Mesocricetus auratus. For orientation: An ELISA detects its analyte on a solid surface through an enzyme-linked reagent.
Series [6] deals with normolipidemic male Syrian hamsters. As to conditions: Study 1, single s.c. 1, 3, or 10 mg/kg, data not shown.
Series [7] relates to hepatic low density lipoprotein receptor (LDLR) protein. Briefly: Study 2: hepatic LDLR levels by Western blot. As to conditions: Study 2, Western blot; 316P 10 mg/kg, atorvastatin 2×20 mg/kg. Type of series: in vivo, Mesocricetus auratus. For orientation: Immunoblotting shows a protein as a band on a membrane.
The target in another series is hPCSK9 (Homo sapiens, UniProt Q8NBP7). As to conditions: cited from earlier work.
For series [8], the system named is normolipidemic male Syrian hamsters. Particulars: in vivo, sc.
Method: as §1, §2, §3, §4
Series [9] concerns the target hPCSK9 D238 mutated (D238R) (Homo sapiens, UniProt Q8NBP7, D238R). As to conditions: cited from earlier work.
A further series has as its system PCSK9. As to conditions: in hamsters; cited from earlier work.
Series [10] relates to PCSK9-mediated down-regulation of LDL uptake via LDLR in HepG2 cells. As to conditions: cited from earlier work.
For a further series, the system named is humans. As to conditions: human phase 1 study, interim analysis, single i.v. administration; cited from earlier work.
Where [11] appears, read: Study 2, atorvastatin alone 10 or 20 mg/kg p.o. twice daily, after 7 days.
Setting [12] is: Study 2, 316P single s.c. 10 mg/kg alone, sustained until Day 7.
[13] abbreviates: D238 mutated vs unmutated hPCSK9.

Chain of hPCSK9 D238 mutated (D238R) (Q8NBP7 153-692 D238R): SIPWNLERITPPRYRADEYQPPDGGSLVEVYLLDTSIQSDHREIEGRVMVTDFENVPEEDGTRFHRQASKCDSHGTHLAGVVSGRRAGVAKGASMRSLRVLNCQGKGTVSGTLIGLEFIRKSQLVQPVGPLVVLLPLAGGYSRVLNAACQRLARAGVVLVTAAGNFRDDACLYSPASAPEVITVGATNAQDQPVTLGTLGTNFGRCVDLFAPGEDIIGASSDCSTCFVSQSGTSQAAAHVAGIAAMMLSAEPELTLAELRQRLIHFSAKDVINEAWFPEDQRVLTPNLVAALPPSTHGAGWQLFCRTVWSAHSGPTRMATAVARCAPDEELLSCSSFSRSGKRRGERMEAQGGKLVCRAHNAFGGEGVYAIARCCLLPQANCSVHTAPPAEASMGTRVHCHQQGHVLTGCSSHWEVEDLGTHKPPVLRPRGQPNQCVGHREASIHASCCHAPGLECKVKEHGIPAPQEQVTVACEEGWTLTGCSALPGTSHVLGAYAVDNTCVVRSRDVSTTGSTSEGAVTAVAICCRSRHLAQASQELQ
Chain of hPCSK9 (Q8NBP7 153-692): as the sequence (Q8NBP7 153-692 D238R) above, with R86D counted along it

With `CC(C)c1c(C(=O)Nc2ccccc2)c(-c2ccccc2)c(-c2ccc(F)cc2)n1CC[C@@H](O)C[C@@H](O)CC(=O)O` [atorvastatin], the “reduction in TG levels” value in [1] (Study 2, atorvastatin 2×20 mg/kg, after 7 days of treatment) is 23%. Also, in [1] (Study 2, atorvastatin alone 10 mg/kg or 20 mg/kg p.o. twice daily, after 7 days), the “reduction of serum TG levels” value amounted to 23%. Moreover, in series [1] (setting [11]), the “effect on serum HDL-C” value is “no significant effect”, the “effect on serum LDL-C” value is recorded as “no significant effect” and the “effect on serum TC” value is “no significant effect”. For the same compound, the “ALT levels” value in [2] (Study 2, atorvastatin 2×10 or 20 mg/kg) is given as “slight, clinically insignificant increase; also recorded: biologically relevant increase”.
As for `CC(C)c1nc(N(C)S(C)(=O)=O)nc(-c2ccc(F)cc2)c1/C=C/[C@@H](O)C[C@@H](O)CC(=O)O` [rosuvastatin], in [3], the “effect on the level of HNF1 alpha” value is “no appreciable effect”; the “increase in LDLR mRNA and protein” value is recorded as “≈ 2 fold”; the “increase in PCSK9 mRNA and protein” value is “≈ 3 fold”. In the series with dyslipidemic hamsters, the “hepatic LDLR levels” value is “reduced” and the “serum LDL-C levels” value is listed as “slightly increased”.
For orientation: Kd means the free concentration of one partner at which half of the binding sites on the other are occupied at equilibrium, for simple one-to-one binding. As to “316P: fully human monoclonal anti-PCSK9 antibody comprising HCVR SEQ ID NO: 9 and LCVR SEQ ID NO: 10 [Antibody 316P]”, the “reduction in HDL-C” value is recorded as “statistically significant but less pronounced than the effect on LDL-C” in [4] (Study 1, data not shown) and “statistically significant but less pronounced than the effect on LDL-C” in series [1] (Study 2, 316P 10 mg/kg (groups not specified), data not shown). Besides, the “serum TG levels” value in series [4] (Study 1, every dose throughout the study) was “remained relatively constant”. Also, the “decrease in TC” value in [4] (Study 1, single s.c. 1 mg/kg) was determined as 9%; in series [4] (Study 1, single s.c. 3 mg/kg), 17%; in series [4] (Study 1, single s.c. 10 mg/kg), 28%. For the same compound, the “maximal effect on LDL-C (reduction)” value in [4] (Study 1, single s.c. 1 mg/kg, after Day 1, vs PBS control) is recorded as 17%; in [4] (Study 1, single s.c. 3 mg/kg, after Day 7, vs PBS control), 27%; in series [4] (Study 1, single s.c. 10 mg/kg, after Day 7, vs PBS control), 59%. Further, the “duration of dose-dependent decrease in LDL-C (TC and LDL-C)” value in series [4] (Study 1, single s.c. 1, 3, or 10 mg/kg) was “more than 2 weeks”. Also, the “day on which LDL-C levels reach PBS control-treated levels (0% reduction)” value in [4] (Study 1, single s.c. injection) is 28 days. For the same compound, in series [4] (highest dose 10 mg/kg, data not shown), the “HDL-C levels” value is “significant reduction”. For the same compound, the “serum 316P concentration vs dose” value in series [5] is reported as “proportional to theoretical dosing levels”. In addition, the “effects on safety parameters, relative liver weight, hepatic cholesterol, TG, phospholipid concentration” value in series [6] was “no biologically relevant effects”. Further, in series [1] (setting [12]), the “effect on serum LDL-C” value is listed as “potent effect”. The “effect on serum TC” value in series [1] (setting [12]) is given as “potent effect”. Further, the “level of hepatic LDLR expression compared with the PBS control groups” value in [7] stood at 149%. Besides, the “level of hepatic LDLR protein versus PBS control” value in [7] is reported as 1.5 fold. Further, the “binding affinity for PCSK9” value in the series with hPCSK9 (in humans) and in the series with PCSK9 was “high binding affinity” each time. Besides, the T1/2 is listed as roughly 37 min in the series with hPCSK9 (unmutated hPCSK9) and roughly 1 min in [9] (D238 mutated). Moreover, the Kd is roughly 1 nM with hPCSK9 (unmutated hPCSK9, read-out: KD (binding affinity)) and roughly 410 nM in series [9] (D238 mutated, read-out: KD (binding affinity)). Besides, the “effects on relative liver weight, hepatic cholesterol, TG or phospholipid concentration” value in series [8] is on record as “no clinically relevant effects”. Moreover, the “decrease of T1/2” value in series [9] (setting [13]) is reported as greater than 30 fold. For the same compound, the “reduction in binding affinity” value in series [9] (setting [13]) is on record as greater than 400 fold. Besides, in series [10], the “effect on PCSK9-mediated down-regulation of LDL uptake via LDLR” value is given as “antagonizes”. The LDL-C reduction entry with humans is “exceeded 60%”. Further, the “duration of LDL-C reduction” value with humans is 30 days. The “tolerability” value in [2] (Study 2) is recorded as “well tolerated”.
